In patent US11419857B2, “Methods and compositions for treating pain” (Apkarian Technologies LLC, priority 2015, dated 2022):

Test system: iSPNs in NAc shell slices
Assay: Whole-cell patch-clamp recording of iSPN excitability in NAc shell slices, drugs bath applied
Assay type: cell-based, mice
Experimental: Current clamp recordings were performed to quantify firing properties.
Sulpiride and Bicifadine were obtained from Tocris. CBR12909 was obtained from Sigma-Aldrich. Drugs were bath applied for at least 15 min to establish equilibrium in the tissue.

SMILES | excitability of iSPNs (slices from SNI mice, bath application 20 μM) | excitability of iSPNs (brain slices from sham mice, 5 μM) | excitability of iSPNs (slices from SNI mice, 5 μM)
Cc1ccc(C23CNCC2C3)cc1 (stereo not drawn) [bicifadine] | decreased the excitability of iSPNs |  | 
CCN1CCCC1CNC(=O)c1cc(S(N)(=O)=O)ccc1OC (stereo not drawn) [sulpiride] |  | increased the excitability of iSPNs | no detectable change in iSPNs excitability
